We go through nine molecules from patent US7569570B2, “Thienopyrimidines, process for preparing the same and use thereof” (Takeda Pharmaceutical Company Limited, priority 2002, dated 2009).

Molecules are shown by their SMILES.

Take `CCNC(=O)Nc1ccc(-c2sc3c(c2CNCCOC)c(=O)n(-c2ccccc2)c(=O)n3Cc2c(F)cccc2F)cc1` [Example 2, N-[4-(1-(2,6-difluorobenzyl)-5-{[(2-methoxyethyl)amino]methyl}-2,4-dioxo-3-phenyl-1,2,3,4-tetrahydrothieno[2,3-d]pyrimidin-6-yl)phenyl]-N′-ethylurea]: the melting point – broadly, the temperature, or range, at which the solid turns liquid – was in the range of 221 to 223 °C.

In the case of `CCNC(=O)Nc1ccc(-c2sc3c(c2CNCCOCC)c(=O)n(-c2ccccc2)c(=O)n3Cc2c(F)cccc2F)cc1` [Example 3], the melting point was 211 to 213 °C. The figure for `CCNC(=O)Nc1ccc(-c2sc3c(c2CN(C)CCC(=O)OCC)c(=O)n(-c2ccccc2)c(=O)n3Cc2c(F)cccc2F)cc1` [Example 4, ethyl 3-[{[1-(2,6-difluorobenzyl)-6-(4-{[(ethylamino)carbonyl]amino}phenyl)-2,4-dioxo-3-phenyl-1,2,3,4-tetrahydrothieno[2,3-d]pyrimidin-5-yl]methyl}(methyl)amino]propanate] is 198 to 200 °C. Under `CCNC(=O)Nc1ccc(-c2sc3c(c2CN(C)CC(=O)OCC)c(=O)n(-c2ccccc2)c(=O)n3Cc2c(F)cccc2F)cc1` [Example 5, ethyl[{[1-(2,6-difluorobenzyl)-6-(4-{[(ethylamino)carbonyl]amino}phenyl)-2,4-dioxo-3-phenyl-1,2,3,4-tetrahydrothieno[2,3-d]pyrimidin-5-yl]methyl}(methyl)amino]acetate] stands 208 to 209 °C. Under `CCNC(=O)Nc1ccc(-c2sc3c(c2CN(C)CCCC(=O)OCC)c(=O)n(-c2ccccc2)c(=O)n3Cc2c(F)cccc2F)cc1` [Example 6, ethyl 4-[{[1-(2,6-difluorobenzyl)-6-(4-{[(ethylamino)carbonyl]amino}phenyl)-2,4-dioxo-3-phenyl-1,2,3,4-tetrahydrothieno[2,3-d]pyrimidin-5-yl]methyl}(methyl)amino]butanate] stands 203 to 204 °C. In turn, `CCNC(=O)Nc1ccc(-c2sc3c(c2CN(C)CCC(=O)N(C)C)c(=O)n(-c2ccccc2)c(=O)n3Cc2c(F)cccc2F)cc1` [Example 10, 3-[{[1-(2,6-difluorobenzyl)-6-(4-{[(ethylamino)carbonyl]amino}phenyl)-2,4-dioxo-3-phenyl-1,2,3,4-tetrahydrothieno[2,3-d]pyrimidin-5-yl]methyl}(methyl)amino]-N,N-dimethylpropanamide] registered a melting point of 236 to 237 °C.

Molecule `CCNC(=O)Nc1ccc(-c2sc3c(c2CN(C)CCCC(=O)N(C)C)c(=O)n(-c2ccccc2)c(=O)n3Cc2c(F)cccc2F)cc1` [Example 18, 4-[{[1-(2,6-difluorobenzyl)-6-(4-{[(ethylamino)carbonyl]amino}phenyl)-2,4-dioxo-3-phenyl-1,2,3,4-tetrahydrothieno[2,3-d]pyrimidin-5-yl]methyl}(methyl)amino]-N,N-dimethylbutane amide] showed a melting point of 191 to 193 °C.

`CCNC(=O)Nc1ccc(-c2sc3c(c2CN(C)CCNC(C)=O)c(=O)n(-c2ccccc2)c(=O)n3Cc2c(F)cccc2F)cc1` [Example 19, N-{2-[{[1-(2,6-difluorobenzyl)-6-(4-{[(ethylamino)carbonyl]amino}phenyl)-2,4-dioxo-3-phenyl-1,2,3,4-tetrahydrothieno[2,3-d]pyrimidin-5-yl]methyl}(methyl)amino]ethyl}acetamide]: the melting point was in the range of 185 to 186 °C. Molecule `CCNC(=O)Nc1ccc(-c2sc3c(c2CN(C)CCN2CCCC2=O)c(=O)n(-c2ccccc2)c(=O)n3Cc2c(F)cccc2F)cc1` [Example 20, N-{4-[1-(2,6-difluorobenzyl)-5-({methyl[2-(2-oxo-1-pyrrolidinyl)ethyl]amino}methyl)-2,4-dioxo-3-phenyl-1,2,3,4-tetrahydrothieno[2,3-d]pyrimidin-6-yl]phenyl}-N′-ethylurea] returned a melting point of 140 to 142 °C.
